Results published in PMC8472965, “BmK86-P1, a New Degradation Peptide with Desirable Thermostability and Kv1.2 Channel-Specific Activity from Traditional Chinese Scorpion Medicinal Material” (Toxins, 2021).
Positions of bridges follow the written chain, without caps; N, C: chain ends. Residues, ends and D or L forms follow the SMILES beside them.

How the values were obtained:
hKv1.3 channel = biological target: T1, hKv1.3 channel (Homo sapiens, UniProt P22001); assay: Whole-cell patch clamp, hKv1.3 channel overexpressed in HEK293T cells; assay type: cell-based; details: 1 μM peptide, room temperature (~25 °C), mean ± S.E., n ≥ 3, SEM
T1 construct: expressed in transfected cells; host or cells: HEK293T
T1 sequence (P22001 whole entry): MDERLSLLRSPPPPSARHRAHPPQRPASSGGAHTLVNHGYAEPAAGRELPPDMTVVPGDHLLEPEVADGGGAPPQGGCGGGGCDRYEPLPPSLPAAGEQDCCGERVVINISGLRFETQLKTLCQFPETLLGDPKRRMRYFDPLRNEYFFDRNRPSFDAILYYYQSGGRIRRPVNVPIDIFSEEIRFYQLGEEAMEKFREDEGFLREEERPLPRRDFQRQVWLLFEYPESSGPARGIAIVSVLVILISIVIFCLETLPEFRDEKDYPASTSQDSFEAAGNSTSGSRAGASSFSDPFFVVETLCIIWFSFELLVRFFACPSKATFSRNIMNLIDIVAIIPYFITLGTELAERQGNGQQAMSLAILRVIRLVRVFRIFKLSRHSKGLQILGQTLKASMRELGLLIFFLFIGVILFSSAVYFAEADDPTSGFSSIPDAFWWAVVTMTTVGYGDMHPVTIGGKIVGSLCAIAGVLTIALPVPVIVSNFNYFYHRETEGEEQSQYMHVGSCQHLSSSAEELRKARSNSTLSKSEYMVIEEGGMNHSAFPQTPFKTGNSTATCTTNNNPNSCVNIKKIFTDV
Experimental: (§1) To investigate the electrophysiological activities of BmK86-P1, the whole-cell patch clamp technique was applied to test the effects of BmK86-P1 on multiple potassium channels. The hKv1.1, hKv1.2, hKv1.3, hKv1.6, hKv3.2, mKv4.1, rKv4.2, rKv4.3 and hERG channels were overexpressed in HEK293T cells, then the inhibitory effects of BmK86-P1 at 1 μM on these potassium channels were measured. […] To further investigate the affinity of BmK86-P1 inhibiting the hKv1.2 channel, a dose-dependent study was performed by examining the inhibitory effects of different concentrations of BmK86-P1.
(§2) All potassium channel expression vectors were given by others or constructed by ourselves. HEK293T cells were cultured in Dulbecco’s modified Eagle medium (Gibco, Pittsburgh, PA, USA) with 10% fetal bovine serum and penicillin/streptomycin (100 units/mL) in a 5% CO2 incubator at 37 °C. […] The potassium currents were recorded after transfection for 1 to 3 days.
(§3) The channel currents were measured and recorded by whole-cell patch clamp technology according to previously published references. […] The channel currents were recorded at room temperature (~25 °C) using an EPC 10 patch clamp amplifier. […]
(§4) The ClampFit (Molecular Devices, Sunnyvale, CA, USA) and SigmaPlot software ([…], Chicago, IL, USA) were used to analyze the recorded data. […]

Kv1.3 channel = details: read-out: IC50, inhibition of the current of Kv1.3 channel; cited from earlier work
Description: The BmK86 toxin gene was first discovered from the venom gland cDNA library of Mesobuthus martensii Karsch. It encodes a signal peptide with 22 amino acid residues and a mature toxin with 35 residues (Figure 6A). The stretch of six amino acids in the N-terminus of BmK86 was thought to be a signal peptide rather than the N-terminal portion of the mature peptide. […] BmK86 could inhibit the c ...

rKv4.3 channel = assay: Whole-cell patch clamp, rKv4.3 channel overexpressed in HEK293T cells; assay type: cell-based, rat; details: 1 μM peptide, mean ± S.E., n ≥ 3, SEM
Experimental: as §1, §2, §3, §4

[1] = biological target: T2, hKv1.2-M1 chimeric channel (Homo sapiens, UniProt P16389, D352E/P359S/Q357H/R354A/T383V/V381Y); assay: Whole-cell patch clamp, chimeric channel hKv1.2-M1 (S5-S6 linker of hKv1.2 replaced by that of hKv1.1); assay type: cell-based; details: 100 nM peptide, HEK293T, mean ± S.E., n ≥ 3, SEM
T2 construct: expressed in transfected cells; host or cells: HEK293T
T2 sequence (P16389 whole entry D352E/R354A/Q357H/P359S/V381Y/T383V): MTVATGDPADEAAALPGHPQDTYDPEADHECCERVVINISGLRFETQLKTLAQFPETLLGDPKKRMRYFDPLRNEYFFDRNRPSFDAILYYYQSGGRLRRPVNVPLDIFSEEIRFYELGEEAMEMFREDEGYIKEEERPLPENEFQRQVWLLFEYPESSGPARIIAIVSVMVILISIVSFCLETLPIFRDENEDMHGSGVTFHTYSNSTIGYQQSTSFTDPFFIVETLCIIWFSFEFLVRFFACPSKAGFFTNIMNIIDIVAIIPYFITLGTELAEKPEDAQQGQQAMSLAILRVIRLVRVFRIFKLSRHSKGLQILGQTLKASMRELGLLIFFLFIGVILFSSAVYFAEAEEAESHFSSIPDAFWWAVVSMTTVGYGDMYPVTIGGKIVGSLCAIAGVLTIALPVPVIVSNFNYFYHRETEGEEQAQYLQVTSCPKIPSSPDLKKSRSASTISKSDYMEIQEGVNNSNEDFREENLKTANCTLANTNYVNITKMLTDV
Experimental: The binding interface of potassium channels for scorpion toxins is the pore region, which includes the turret and filter regions. We first investigated whether BmK86-P1 peptide binds to the pore region of the hKv1.2 channel.
(§5) All potassium channel expression vectors were given by others or constructed by ourselves. HEK293T cells were cultured in Dulbecco’s modified Eagle medium (Gibco, Pittsburgh, PA, USA) with 10% fetal bovine serum and penicillin/streptomycin (100 units/mL) in a 5% CO2 incubator at 37 °C. Potassium channel expression vectors and pEGFP-N1 were co-transfected into HEK293T cells using TurboFect in vitro Transfection Reagent (Thermo Scientific, Waltham, MA, USA) according to the manufacturer’s instructions. The potassium currents were recorded after transfection for 1 to 3 days.
The channel currents were measured and recorded by whole-cell patch clamp technology according to previously published references. The internal patch pipette solution and the bath solution were prepared as previously described. All the test peptides were dissolved into bath solution supplemented with 0.01% BSA. An MPS-2 multichannel microperfusion system (INBIO Inc., Wuhan, China) was applied to change the external recording bath solution. […] The channel currents were recorded at room temperature (~25 °C) using an EPC 10 patch clamp amplifier. […]

hKv1.2-V381Y = biological target: T3, hKv1.2-V381Y (Homo sapiens, UniProt P16389, V381Y); assay: Whole-cell patch clamp, hKv1.2 channel mutant V381Y; assay type: cell-based; details: 100 nM peptide, HEK293T, mean ± S.E., n ≥ 3, SEM
T3 construct: expressed in transfected cells; host or cells: HEK293T
T3 sequence (P16389 whole entry V381Y): as the sequence (P16389 whole entry D352E/R354A/Q357H/P359S/V381Y/T383V) above, with E352D, A354R, H357Q, S359P, V383T counted along it
Experimental: (§6) To determine the functional sites of the hKv1.2 channel responsible for the selectivity of BmK86-P1, six hKv1.2 mutants were obtained based on sequence differences between the pore regions of the hKv1.2 and hKv1.1 channels (Figure 4A). Then, the activities of 100 nM BmK86-P1 on these six mutant channels were tested. […] The other three mutant channels (hKv1.2-D352E, hKv1.2-R354A and hKv1.2-P359S) still kept similar sensitivities toward BmK86-P1 compared with the wild-type hKv1.2 channel (Figure 4H,I,K,N).
as §5, §3

hKv1.2-D352E = biological target: T4, hKv1.2-D352E (Homo sapiens, UniProt P16389, D352E); assay: Whole-cell patch clamp, hKv1.2 channel mutant D352E; assay type: cell-based; details: 100 nM peptide, HEK293T, mean ± S.E., n ≥ 3, SEM
T4 construct: expressed in transfected cells; host or cells: HEK293T
T4 sequence (P16389 whole entry D352E): as the sequence (P16389 whole entry D352E/R354A/Q357H/P359S/V381Y/T383V) above, with A354R, H357Q, S359P, Y381V, V383T counted along it
Experimental: as §6, §5, §3

hKv1.2-Q357H = biological target: T5, hKv1.2-Q357H (Homo sapiens, UniProt P16389, Q357H); assay: Whole-cell patch clamp, hKv1.2 channel mutant Q357H; assay type: cell-based; details: 100 nM peptide, HEK293T, mean ± S.E., n ≥ 3, SEM
T5 construct: expressed in transfected cells; host or cells: HEK293T
T5 sequence (P16389 whole entry Q357H): as the sequence (P16389 whole entry D352E/R354A/Q357H/P359S/V381Y/T383V) above, with E352D, A354R, S359P, Y381V, V383T counted along it
Experimental: as §6, §5, §3

mKv4.1 channel = biological target: T6, mKv4.1 channel (Mus musculus, UniProt Q03719); assay: Whole-cell patch clamp, mKv4.1 channel overexpressed in HEK293T cells; assay type: cell-based; details: 1 μM peptide, mean ± S.E., n ≥ 3, SEM
T6 construct: expressed in transfected cells; host or cells: HEK293T
T6 sequence (Q03719 1-651): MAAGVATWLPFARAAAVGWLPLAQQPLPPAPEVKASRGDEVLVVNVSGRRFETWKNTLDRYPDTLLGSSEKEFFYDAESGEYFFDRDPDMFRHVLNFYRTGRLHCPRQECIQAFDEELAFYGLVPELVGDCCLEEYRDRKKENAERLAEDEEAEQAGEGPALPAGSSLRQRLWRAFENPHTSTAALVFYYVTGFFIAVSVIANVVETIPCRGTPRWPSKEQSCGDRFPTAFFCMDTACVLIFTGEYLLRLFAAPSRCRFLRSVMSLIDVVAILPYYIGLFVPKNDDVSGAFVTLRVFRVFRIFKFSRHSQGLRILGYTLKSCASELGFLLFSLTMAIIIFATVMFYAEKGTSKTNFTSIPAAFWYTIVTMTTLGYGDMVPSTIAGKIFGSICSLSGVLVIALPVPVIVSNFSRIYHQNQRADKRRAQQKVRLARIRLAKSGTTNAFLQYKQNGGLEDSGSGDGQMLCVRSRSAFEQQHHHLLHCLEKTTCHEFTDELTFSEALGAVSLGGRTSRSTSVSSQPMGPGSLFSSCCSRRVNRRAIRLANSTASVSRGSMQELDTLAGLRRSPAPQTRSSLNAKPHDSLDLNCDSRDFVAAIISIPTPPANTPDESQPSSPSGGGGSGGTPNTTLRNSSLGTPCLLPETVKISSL
Experimental: as §1, §2, §3, §4

SMILES: CC[C@H](C)[C@@H]1NC(=O)[C@@H]2CSSC[C@H](NC(=O)[C@H](C)N)C(=O)N[C@@H](CO)C(=O)N[C@@H](CCCCN)C(=O)N3CCC[C@H]3C(=O)N[C@H]3CSSC[C@H](NC(=O)[C@H](CCCNC(=N)N)NC(=O)CNC(=O)[C@H](CC(N)=O)NC1=O)C(=O)N[C@@H](Cc1c[nH]cn1)C(=O)N[C@H](C(=O)N[C@@H](Cc1ccc(O)cc1)C(=O)N[C@@H](Cc1ccc(O)cc1)C(=O)O)CSSC[C@H](NC(=O)[C@H](Cc1ccc(O)cc1)NC(=O)[C@H](CCCCN)NC(=O)[C@H](CCCNC(=N)N)NC3=O)C(=O)N[C@@H]([C@@H](C)CC)C(=O)N[C@@H](CC(=O)O)C(=O)N[C@@H](CCCCN)C(=O)NCC(=O)N[C@@H](C)C(=O)N[C@@H](CCCNC(=N)N)C(=O)N[C@@H](CC(N)=O)C(=O)NCC(=O)N[C@@H](CCCCN)C(=O)N2 [BmK86-P1] (H-ACSKPCRKYCIDKGARNGKCINGRCHCYY-OH; disulfide 2-20, 6-25, 10-27 (inferred); N-terminus and C-terminus assumed)
- inhibition of hKv1.3 channel currents (hKv1.3 channel): 52.1 ± 3.1%
- IC50 (Kv1.3 channel): 597 ± 114 nM
- inhibition of Kv4.3 channel currents (rKv4.3 channel): 4.9 ± 0.3%
- inhibition of hKv1.2-M1 chimeric channel currents [1]: 1.0 ± 0.2%
- inhibition of hKv1.2-V381Y channel currents (hKv1.2-V381Y): 1.6 ± 0.1%
- inhibition of hKv1.2-D352E channel currents (hKv1.2-D352E): 74.8 ± 1.2%
- inhibition of hKv1.2-Q357H channel currents (hKv1.2-Q357H): 37.3 ± 1.5%
- inhibition of Kv4.1 channel currents (mKv4.1 channel): 3.4 ± 1.1%
